Experimental data from US7411093B2, “Aminocycloalkanes as DPP-IV inhibitors” (Hoffman-La Roche Inc., priority 2004, dated 2008).

Molecular target: T1, human DPP-IV (Homo sapiens, UniProt P27487)
T1 construct: made in house; host or cells: Pichia pastoris (secreted, purified from culture medium)
Assay: DPP-IV activity assay (fluorogenic or colorimetric substrate)
Format: biochemical
Conditions: natural human DPP-IV from human plasma pool or recombinant human DPP-IV; 37° C., pH 7.8
Description: Activity of DPP-IV inhibitors are tested with natural human DPP-IV derived from a human plasma pool or with recombinant human DPP-IV. Human citrate plasma from different donors is pooled, filtered through a 0.2 micron membrane under sterile conditions and aliquots of 1 ml are shock frozen and stored at −120° C. until used. In the colorimetric DPP-IV assay 5 to 10 μl human plasma and in the fluorometric assay 1.0 μl of human plasma in a total assay volume of 100 μl is used as an enzyme source. The cDNA of the human DPP-IV sequence of amino acid 31- to 766, restricted for the N-terminus and the transmembrane domain, is cloned into Pichia pastoris. Human DPP-IV is expressed and purified from the culture medium using conventional column chromatography including size exclusion and anion and cation chromatography. The purity of the final enzyme preparation of Coomassie blue SDS-PAGE is >95%. In the colorimetric DPP-IV assay 20 ng rec.-h DPP-IV and in the fluorometric assay 2 ng rec-h DPP-IV in a total assay volume of 100 μl is used as an enzyme source.
In the fluorogenic assay Ala-Pro-7-amido-4-trifluoromethylcoumarin (Calbiochem No 125510) is used as a substrate. A 20 mM stock solution in 10% DMF/H2O is stored at −20° C. until use. In IC50 determinations a final substrate concentration of 50 μM is used. In assays to determine kinetic parameters as Km, Vmax, Ki, the substrate concentration is varied between 10 μM and 500 μM.
In the colorimetric assay H-Ala-Pro-pNA.HCl (Bachem L-11115) is used as a substrate. A 10 mM stock solution in 10% MeOH/H2O is stored at −20° C. until use. In IC50 determinations a final substrate concentration of 200 μM is used. In assays to determine kinetic parameters as Km, Vmax, Ki, the substrate concentration is varied between 100 μM and 2000 μM.
Fluorescence is detected in a Perkin Elmer Luminescence Spectrometer LS 50B at an excitation wavelength of 400 nm and an emission wavelength of 505 nm continuously every 15 seconds for 10 to 30 minutes. Initial rate constants are calculated by best fit linear regression.
The absorption of pNA liberated from the colorimetric substrate is detected in a Packard SpectraCount at 405 nm continuously every 2 minutes for 30 to 120 minutes. Initial rate constants are calculated by best fit linear regression.
DPP-IV activity assays are performed in 96 well plates at 37° C. in a total assay volume of 100 μl. The assay buffer consists of 50 mM Tris/HCl, pH 7.8 containing 0.1 mg/ml BSA and 100 mM NaCl. […]
IC50 determinations of test compounds are calculated by non-linear best fit regression of the DPP-IV inhibition of at least 5 different compound concentrations. Kinetic parameters of the enzyme reaction are calculated at least 5 different substrate concentrations and at least 5 different test compound concentrations.

T1 sequence (P27487 31-766): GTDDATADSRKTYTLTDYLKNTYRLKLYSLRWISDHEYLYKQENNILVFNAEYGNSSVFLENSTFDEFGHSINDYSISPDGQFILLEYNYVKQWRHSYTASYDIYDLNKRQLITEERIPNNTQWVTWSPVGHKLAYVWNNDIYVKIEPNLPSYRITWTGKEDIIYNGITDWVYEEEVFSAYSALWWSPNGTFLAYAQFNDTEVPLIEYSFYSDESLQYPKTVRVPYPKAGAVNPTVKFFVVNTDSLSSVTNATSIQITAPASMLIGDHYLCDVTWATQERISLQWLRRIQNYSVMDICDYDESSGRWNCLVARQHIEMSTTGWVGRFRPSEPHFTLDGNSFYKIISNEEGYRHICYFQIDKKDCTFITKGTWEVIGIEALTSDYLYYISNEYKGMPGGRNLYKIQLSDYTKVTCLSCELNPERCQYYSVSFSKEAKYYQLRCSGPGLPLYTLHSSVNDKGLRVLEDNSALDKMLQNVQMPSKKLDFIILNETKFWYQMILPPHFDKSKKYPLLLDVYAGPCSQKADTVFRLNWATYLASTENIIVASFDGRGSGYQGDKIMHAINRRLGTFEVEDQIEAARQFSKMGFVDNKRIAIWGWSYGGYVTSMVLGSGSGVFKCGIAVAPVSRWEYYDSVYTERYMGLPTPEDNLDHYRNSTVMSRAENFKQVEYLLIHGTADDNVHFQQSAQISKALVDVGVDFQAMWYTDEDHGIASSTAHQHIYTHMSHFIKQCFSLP

| Structure (SMILES) | IC50 [nM] |
| --- | --- |
| N[C@@H]1CCCC[C@@H]1c1cc(Cl)ccc1Cl (relative stereo) [Example 7, (cis)-2-(2,5-Dichloro-phenyl)-cyclohexylamine] | 130 |
| Cc1ccc(C)c([C@@H]2CCCC[C@H]2N)c1 (relative stereo) [Example 18, (trans)-2-(2,5-Dimethyl-phenyl)-cyclohexylamine] | 160 |
| N[C@@H]1CCCCC[C@H]1c1cc(Cl)ccc1Cl (relative stereo) [Example 24, (trans)-2-(2,5-Dichloro-phenyl)-cycloheptylamine] | 720 |
| CC1=CC(=O)N([C@@H]2CCCC[C@H]2N)C1 (relative stereo) [Example 30, trans-1-(2-Amino-cyclohexyl)-4-methyl-1,5-dihydro-pyrrol-2-one] | 730 |
